Source: DBAASP
Converted amounts (≈) assume the structure as drawn. “And” between values parts separate entries of the source, which are not always exact repeats. Equal values may be shown once. One block for each molecule: values may come before it.

Key:
Experiment in all cases: ≥ marks a high value that may be exact or a test limit, other limits are often not marked, values filed in µg/mL are converted to µM
[1] = system: Salmonella enterica subsp. enterica serovar Typhimurium LT2
[2] = system: Clostridium tertium ATCC 19465
[3] = system: Proteus mirabilis ATCC 25933
[4] = system: Enterobacter cloacae HNTCC 53001
[5] = system: Bacteroides fragilis ATCC 25285
[6] = system: Staphylococcus aureus NCTC 8325
[7] = system: Staphylococcus epidermidis RP62A
[8] = system: Peptoniphilus asaccharolyticus ATCC 29743
[9] = system: Klebsiella pneumoniae KK3 9904
Bacteroides fragilis = system: Bacteroides fragilis
[10] = system: Clostridium perfringens ATCC 10543
Cutibacterium acnes = system: Cutibacterium acnes
[11] = system: Prevotella melaninogenica
[12] = system: Fusobacterium varium ATCC 27725
[13] = system: Staphylococcus aureus T7/5
[14] = system: Pseudomonas aeruginosa ATCC 27853
[15] = system: Candida albicans ATCC 90028
[16] = system: Peptostreptococcus anaerobius
Clostridium septicum = system: Clostridium septicum
[17] = system: Staphylococcus aureus T17/13
[18] = system: Cutibacterium acnes ATCC 11828
Fusobacterium nucleatum = system: Fusobacterium nucleatum
[19] = system: Enterococcus faecalis ATCC 29212
[20] = system: Escherichia coli ATCC 25922
[21] = system: Lactiplantibacillus plantarum ATCC 14917
Staphylococcus aureus MR = system: Staphylococcus aureus MR
[22] = system: Lactobacillus jensenii ATCC 25258
[23] = system: Gardnerella vaginalis ATCC 14018
[24] = system: Staphylococcus aureus ATCC 43300
Candida albicans = system: Candida albicans
[25] = system: Bacillus subtilis ATCC 9372
[26] = system: Staphylococcus aureus ATCC 31007
[27] = system: Lactobacillus gasseri ATCC 33323
[28] = system: Streptococcus intermedius
[29] = system: Staphylococcus aureus ATCC 25923
Pseudomonas aeruginosa = system: Pseudomonas aeruginosa
[30] = system: Bacillus pumilus ATCC 63202
Lactobacillus crispatus = system: Lactobacillus crispatus
Enterococcus avium = system: Enterococcus avium
Staphylococcus aureus = system: Staphylococcus aureus
Bacillus subtilis = system: Bacillus subtilis
[31] = system: Lactobacillus crispatus ATCC 33820
Streptococcus anginosus = system: Streptococcus anginosus
Aeromonas hydrophila = system: Aeromonas hydrophila
[32] = system: Enterococcus faecalis ATCC 51299
[33] = system: Staphylococcus aureus ATCC 49476
Gardnerella vaginalis = system: Gardnerella vaginalis
[34] = system: Gardnerella vaginalis ATCC 49145
[35] = system: Enterococcus faecium ATCC 51559
Edwardsiella tarda = system: Edwardsiella tarda
[36] = system: Streptococcus pasteurianus
[37] = system: Candida albicans ATCC 14053
Streptococcus agalactiae = system: Streptococcus agalactiae
Escherichia coli = system: Escherichia coli

MIC [1]: 25 µM (≈ 65.7 µg/mL)
MIC [2]: 12.5 µM (≈ 32.9 µg/mL)
MIC [3]: ≥ 100 µM
MIC [4]: 6 µM (≈ 15.8 µg/mL)
MIC [5]: ≥ 50 µM
MIC [6]: ≥ 40 µM
MIC [7]: 6 µM (≈ 15.8 µg/mL)
MIC [8]: ≥ 50 µM
MIC [9]: 12.5 µM (≈ 32.9 µg/mL)
MIC (Bacteroides fragilis): ≥ 50 µM
MIC [10]: 12.5 µM (≈ 32.9 µg/mL)
MIC (Cutibacterium acnes): 6 µM (≈ 15.8 µg/mL)
MIC [11]: 6 µM (≈ 15.8 µg/mL)
MIC [12]: ≥ 50 µM
MIC [13]: 20 µM (≈ 52.6 µg/mL)
MIC [14]: 6 µM (≈ 15.8 µg/mL)
MIC [15]: ≥ 80 µM
MIC [16]: 25 µM (≈ 65.7 µg/mL)
MIC (Clostridium septicum): ≥ 50 µM
MIC [17]: 10 µM (≈ 26.3 µg/mL)
MIC [18]: 12.5 µM (≈ 32.9 µg/mL)
MIC (Fusobacterium nucleatum): ≥ 50 µM
MIC [19]: 12.5 µM (≈ 32.9 µg/mL)
MIC [20]: 2.5 µM (≈ 6.57 µg/mL)
Compound: CC[C@H](C)[C@H](NC(=O)[C@@H](N)CCCN=C(N)N)C(=O)NCC(=O)N[C@H](C(=O)N[C@@H](CC(C)C)C(=O)N[C@@H](CC(C)C)C(=O)N[C@@H](C)C(=O)N[C@@H](CCCN=C(N)N)C(=O)N[C@@H](CC(C)C)C(=O)N1CCC[C@H]1C(=O)N[C@@H](CCCCN)C(=O)N[C@@H](CC(C)C)C(=O)N[C@@H](Cc1ccccc1)C(=O)N[C@@H](CO)C(=O)N[C@@H](CC(C)C)C(=O)N[C@@H](Cc1ccccc1)C(=O)N[C@@H](CCCCN)C(=O)N[C@@H](CC(C)C)C(=O)N[C@@H](CCSC)C(=O)NCC(=O)N[C@@H](CCCCN)C(=O)N[C@@H](CCCCN)C(=O)N[C@H](C(=O)O)C(C)C)C(C)C [RIGVLLARLPKLFSLFKLMGKKV]

MIC (Staphylococcus aureus MR): 5.37 µM (≈ 16 µg/mL)
MIC [22]: ≥ 83.8 µM
MIC [23]: 1.31 µM and 2.62 µM
MIC [24]: 2.7 µM (≈ 8.05 µg/mL)
MIC (Candida albicans): 26.7 µM and 42.9 µM
MIC [25]: 2.7 µM (≈ 8.05 µg/mL)
MIC [26]: 5.4 µM (≈ 16.1 µg/mL)
MIC [27]: ≥ 168 µM
MIC [28]: 5.24 µM (≈ 15.6 µg/mL)
MIC [29]: 2.7 µM and 5.4 µM
MIC (Pseudomonas aeruginosa): 6.67 µM (≈ 19.9 µg/mL)
MIC [30]: 1.3 µM (≈ 3.88 µg/mL)
MIC (Lactobacillus crispatus): 29.6 µM (≈ 88.4 µg/mL)
MIC (Enterococcus avium): 0.926 µM (≈ 2.76 µg/mL)
MIC (Staphylococcus aureus): 5 µM (≈ 14.9 µg/mL)
MIC (Bacillus subtilis): 1.7 µM (≈ 5.07 µg/mL)
MIC [31]: ≥ 41.9 µM
MIC (Streptococcus anginosus): 3.71 µM (≈ 11 µg/mL)
MIC [14]: 21.5 µM (≈ 64 µg/mL)
MIC (Aeromonas hydrophila): ≥ 160 µM
MIC [32]: 10.8 µM (≈ 32.2 µg/mL)
MIC [33]: 2.68 µM (≈ 8 µg/mL)
MIC (Gardnerella vaginalis): 1.85 µM (≈ 5.53 µg/mL)
MIC [34]: 1.31 µM (≈ 3.91 µg/mL)
MIC [35]: 2.7 µM (≈ 8.05 µg/mL)
MIC (Edwardsiella tarda): 20 µM (≈ 59.6 µg/mL)
MIC [36]: 1.85 µM (≈ 5.53 µg/mL)
MIC [37]: 2.62 µM (≈ 7.81 µg/mL)
MIC (Streptococcus agalactiae): 3.71 µM (≈ 11 µg/mL)
MIC (Escherichia coli): 5 µM and 1.85 µM
MIC [20]: 42.9 µM (≈ 128 µg/mL)
Compound: CC[C@H](C)[C@H](NC(=O)[C@H](C)NC(=O)[C@H](CCCCN)NC(=O)CNC(=O)[C@H](C)NC(=O)[C@H](CO)NC(=O)[C@H](Cc1ccccc1)NC(=O)[C@H](CC(C)C)NC(=O)CNC(=O)CNC(=O)[C@@H](NC(=O)[C@@H](NC(=O)[C@H](Cc1cnc[nH]1)NC(=O)[C@H](Cc1cnc[nH]1)NC(=O)[C@@H](NC(=O)[C@@H](N)Cc1ccccc1)[C@@H](C)CC)[C@@H](C)CC)[C@@H](C)CC)C(=O)N[C@@H](Cc1cnc[nH]1)C(=O)N[C@@H](CCCN=C(N)N)C(=O)N[C@@H](CC(C)C)C(=O)N[C@H](C(=O)N[C@@H](CCCN=C(N)N)C(=O)N[C@@H](CCCN=C(N)N)C(=O)N[C@@H](CCCN=C(N)N)C(=O)N[C@@H](CCCN=C(N)N)C(=O)N[C@@H](CCCN=C(N)N)C(=O)O)[C@@H](C)CC [FIHHIIGGLFSAGKAIHRLIRRRRR]
MIC [21]: ≥ 41.9 µM
